According to ChEMBL document CHEMBL1142078, “Detection of a new SHV-type extended-spectrum beta-lactamase, SHV-31, in a Klebsiella pneumoniae strain causing a large nosocomial outbreak in The Netherlands” (2007):
≈ marks a conversion by molar mass, not a printed value.

Tests used:
Type in all cases: functional
Klebsiella pneumoniae = assay: Antimicrobial activity against Klebsiella pneumoniae KPN15-NL
Escherichia coli [1] = assay: Antimicrobial activity against Escherichia coli XL10/vector
Escherichia coli [2] = assay: Antimicrobial activity against Escherichia coli XL10/pSHV-31

| SMILES | MIC (Klebsiella pneumoniae) | MIC (Escherichia coli [1]) | MIC (Escherichia coli [2]) |
| --- | --- | --- | --- |
| CC1(C)S[C@@H]2[C@H](NC(=O)[C@H](N)c3ccc(O)cc3)C(=O)N2[C@H]1C(=O)O [AMOXICILLIN] | > 128 µg/mL | 16 µg/mL (≈ 43.8 µM) | > 128 µg/mL |
| CC1(C)S[C@@H]2[C@H](NC(=O)[C@H](N)c3ccccc3)C(=O)N2[C@H]1C(=O)O [AMPICILLIN] | > 128 µg/mL | – | > 128 µg/mL |
| C[C@H]1[C@H](NC(=O)/C(=N\OC(C)(C)C(=O)O)c2csc(N)n2)C(=O)N1S(=O)(=O)O [AZTREONAM] | > 128 µg/mL | 0.12 µg/mL (≈ 0.276 µM) | > 128 µg/mL |
| CO/N=C(\C(=O)N[C@@H]1C(=O)N2C(C(=O)[O-])=C(C[N+]3(C)CCCC3)CS[C@H]12)c1csc(N)n1 [CEFEPIME] | 1 µg/mL (≈ 2.08 µM) | ≤ 0.06 µg/mL | 0.5 µg/mL (≈ 1.04 µM) |
| CO/N=C(\C(=O)N[C@@H]1C(=O)N2C(C(=O)O)=C(COC(C)=O)CS[C@H]12)c1csc(N)n1 [CEFOTAXIME] | 8 µg/mL (≈ 17.6 µM) | ≤ 0.06 µg/mL | 4 µg/mL (≈ 8.78 µM) |
| CO[C@@]1(NC(=O)Cc2cccs2)C(=O)N2C(C(=O)O)=C(COC(N)=O)CS[C@@H]21 [CEFOXITIN] | 16 µg/mL (≈ 37.4 µM) | 1 µg/mL (≈ 2.34 µM) | 1 µg/mL (≈ 2.34 µM) |
| CC(C)(O/N=C(\C(=O)N[C@@H]1C(=O)N2C(C(=O)[O-])=C(C[n+]3ccccc3)CS[C@H]12)c1csc(N)n1)C(=O)O [CEFTAZIDIME] | 128 µg/mL (≈ 234 µM) | 0.12 µg/mL (≈ 0.22 µM) | 32 µg/mL (≈ 58.5 µM) |
| C[C@@H](O)[C@H]1C(=O)N2C(C(=O)O)=C(S[C@@H]3CN[C@H](C(=O)Nc4cccc(C(=O)O)c4)C3)[C@H](C)[C@H]12 [ERTAPENEM] | ≤ 0.06 µg/mL | – | ≤ 0.06 µg/mL |
| C[C@@H](O)[C@H]1C(=O)N2C(C(=O)O)=C(SCCNC=N)C[C@H]12 [IMIPENEM ANHYDROUS] | ≤ 0.06 µg/mL | – | ≤ 0.06 µg/mL |
| CCN1CCN(C(=O)N[C@@H](C(=O)N[C@@H]2C(=O)N3[C@@H]2SC(C)(C)[C@@H]3C(=O)O)c2ccccc2)C(=O)C1=O [PIPERACILLIN] | > 128 µg/mL | 1 µg/mL (≈ 1.93 µM) | 64 µg/mL (≈ 124 µM) |
